Test results from PubChem BioAssay (NCI).
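In this assay, cells in 96-well plates receive the compound at five concentrations for 48 hours. Endpoints are linearly interpolated between the surrounding concentrations. The concentration for 50% growth inhibition is given as GI50. TGI marks complete inhibition of growth.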

Experiments:
Experiment in all cases: inhibition of tumour cell growth, NCI panel, 48 h
TK-10 renal = system: TK-10 renal
KM12 colon = system: KM12 colon
NCI-H460 lung = system: NCI-H460 lung
OVCAR-8 ovarian = system: OVCAR-8 ovarian
SK-OV-3 ovarian = system: SK-OV-3 ovarian
PC-3 prostate = system: PC-3 prostate
OVCAR-3 ovarian = system: OVCAR-3 ovarian
NCI-H226 lung = system: NCI-H226 lung
U251 CNS = system: U251 CNS
HCT-116 colon = system: HCT-116 colon
LOX IMVI melanoma = system: LOX IMVI melanoma
K-562 leukemia = system: K-562 leukemia
NCI-H522 lung = system: NCI-H522 lung
DU-145 prostate = system: DU-145 prostate
SK-MEL-28 melanoma = system: SK-MEL-28 melanoma
SK-MEL-2 melanoma = system: SK-MEL-2 melanoma
RXF 393 renal = system: RXF 393 renal
ACHN renal = system: ACHN renal
HOP-62 NSCLC = system: HOP-62 NSCLC
EKVX NSCLC = system: EKVX NSCLC
SN12C renal = system: SN12C renal
MDA-N = system: MDA-N
SF-539 CNS = system: SF-539 CNS
HOP-92 NSCLC = system: HOP-92 NSCLC
RPMI-8226 leukemia = system: RPMI-8226 leukemia
SW-620 colon = system: SW-620 colon
HT29 colon = system: HT29 colon
NCI-H23 lung = system: NCI-H23 lung
HCC-2998 colon = system: HCC-2998 colon
A498 renal = system: A498 renal
MCF7 breast = system: MCF7 breast
SNB-19 CNS = system: SNB-19 CNS
CCRF-CEM leukemia = system: CCRF-CEM leukemia
MDA-MB-435 = system: MDA-MB-435
MOLT-4 leukemia = system: MOLT-4 leukemia
HCT-15 colon = system: HCT-15 colon
OVCAR-4 ovarian = system: OVCAR-4 ovarian
786-0 renal = system: 786-0 renal
M14 melanoma = system: M14 melanoma
MDA-MB-231 breast = system: MDA-MB-231 breast
UACC-62 melanoma = system: UACC-62 melanoma
SK-MEL-5 melanoma = system: SK-MEL-5 melanoma
COLO 205 colon = system: COLO 205 colon
NCI/ADR-RES ovarian = system: NCI/ADR-RES ovarian
SF-295 CNS = system: SF-295 CNS
HL-60(TB) leukemia = system: HL-60(TB) leukemia
IGROV1 ovarian = system: IGROV1 ovarian
A549 NSCLC = system: A549 NSCLC
T-47D breast = system: T-47D breast
UO-31 renal = system: UO-31 renal
HS 578T breast = system: HS 578T breast
SF-268 CNS = system: SF-268 CNS
OVCAR-5 ovarian = system: OVCAR-5 ovarian
SNB-75 CNS = system: SNB-75 CNS
SR leukemia = system: SR leukemia
BT-549 breast = system: BT-549 breast
MALME-3M melanoma = system: MALME-3M melanoma
CAKI-1 renal = system: CAKI-1 renal
UACC-257 melanoma = system: UACC-257 melanoma

## Cc1c(O)c(C)c2c(C)cn(C(=O)C(C)(C)C)c2c1C
TK-10 renal
  TGI: 36.4 µM
KM12 colon
  TGI: 27.2 µM
NCI-H460 lung
  TGI: 63.8 µM
OVCAR-8 ovarian
  TGI: 34.7 µM
SK-OV-3 ovarian
  TGI: 42.8 µM
PC-3 prostate
  TGI: 38.5 µM
OVCAR-3 ovarian
  TGI: > 100 µM
NCI-H226 lung
  TGI: 33.5 µM
U251 CNS
  TGI: 69 µM
HCT-116 colon
  TGI: 45.3 µM
LOX IMVI melanoma
  TGI: 92.2 µM
K-562 leukemia
  TGI: 98.2 µM
NCI-H522 lung
  TGI: 56.2 µM
DU-145 prostate
  TGI: 43.9 µM
SK-MEL-28 melanoma
  TGI: 28.7 µM
SK-MEL-2 melanoma
  TGI: 43.4 µM
RXF 393 renal
  TGI: 41.6 µM
ACHN renal
  TGI: 35.3 µM
HOP-62 NSCLC
  TGI: 31.7 µM
EKVX NSCLC
  TGI: 49.7 µM
SN12C renal
  TGI: 31.8 µM
MDA-N
  TGI: 38.8 µM
SF-539 CNS
  TGI: 30 µM
HOP-92 NSCLC
  TGI: 17.5 µM
RPMI-8226 leukemia
  TGI: 84.5 µM
SW-620 colon
  TGI: 74.4 µM
HT29 colon
  TGI: 42.6 µM
NCI-H23 lung
  TGI: 41.6 µM
HCC-2998 colon
  TGI: 96.6 µM
A498 renal
  TGI: 30 µM
MCF7 breast
  TGI: 20.3 µM
SNB-19 CNS
  TGI: 65.5 µM
CCRF-CEM leukemia
  TGI: 55.7 µM
MDA-MB-435
  TGI: 30.3 µM
MOLT-4 leukemia
  TGI: 55.2 µM
HCT-15 colon
  TGI: 40.6 µM
OVCAR-4 ovarian
  TGI: 27 µM
786-0 renal
  TGI: 36.3 µM
M14 melanoma
  TGI: 30.5 µM
MDA-MB-231 breast
  TGI: 28.5 µM
UACC-62 melanoma
  TGI: 28.5 µM
SK-MEL-5 melanoma
  TGI: 27.8 µM
COLO 205 colon
  TGI: 30.3 µM
NCI/ADR-RES ovarian
  TGI: > 100 µM
SF-295 CNS
  TGI: 32.9 µM
HL-60(TB) leukemia
  TGI: > 100 µM
IGROV1 ovarian
  TGI: 42.2 µM
A549 NSCLC
  TGI: 64.7 µM
T-47D breast
  TGI: 90 µM
UO-31 renal
  TGI: 79.6 µM
HS 578T breast
  TGI: 77.2 µM
SF-268 CNS
  TGI: > 100 µM
OVCAR-5 ovarian
  TGI: 83 µM
SNB-75 CNS
  TGI: 34.1 µM

## COc1ccc2[nH]cc(-c3nc(-c4c[nH]c5ncccc45)cs3)c2c1
TK-10 renal
  GI50: 5.47 µM
  TGI: > 100 µM
KM12 colon
  GI50: 3.56 µM
  TGI: > 100 µM
NCI-H460 lung
  GI50: 3.26 µM
  TGI: > 100 µM
OVCAR-8 ovarian
  GI50: 4.7 µM
  TGI: > 100 µM
SK-OV-3 ovarian
  GI50: 4.41 µM
  TGI: > 100 µM
PC-3 prostate
  GI50: 4.33 µM
  TGI: > 100 µM
OVCAR-3 ovarian
  GI50: 6.04 µM
  TGI: > 100 µM
NCI-H226 lung
  GI50: 3.93 µM
  TGI: > 100 µM
SR leukemia
  GI50: 2.91 µM
  TGI: > 100 µM
U251 CNS
  GI50: 3.83 µM
  TGI: > 100 µM
HCT-116 colon
  GI50: 2.9 µM
  TGI: 21 µM
LOX IMVI melanoma
  GI50: 2.83 µM
  TGI: > 100 µM
K-562 leukemia
  GI50: 2.68 µM
  TGI: > 100 µM
NCI-H522 lung
  GI50: 8.02 µM
  TGI: > 100 µM
DU-145 prostate
  GI50: 5.69 µM
  TGI: > 100 µM
SK-MEL-28 melanoma
  GI50: 6.43 µM
  TGI: > 100 µM
SK-MEL-2 melanoma
  GI50: 8.36 µM
  TGI: > 100 µM
BT-549 breast
  GI50: 5.35 µM
  TGI: > 100 µM
ACHN renal
  GI50: 2.85 µM
  TGI: > 100 µM
HOP-62 NSCLC
  GI50: 5.23 µM
  TGI: > 100 µM
EKVX NSCLC
  GI50: 5.79 µM
  TGI: > 100 µM
SN12C renal
  GI50: 4.96 µM
  TGI: > 100 µM
SF-539 CNS
  GI50: 4.88 µM
  TGI: > 100 µM
HOP-92 NSCLC
  GI50: 2.13 µM
  TGI: 8.12 µM
RPMI-8226 leukemia
  GI50: 4.76 µM
  TGI: > 100 µM
SW-620 colon
  GI50: 3.46 µM
  TGI: > 100 µM
NCI-H23 lung
  GI50: 4.38 µM
  TGI: > 100 µM
HCC-2998 colon
  GI50: 67.3 µM
  TGI: > 100 µM
A498 renal
  GI50: 1.16 µM
  TGI: > 100 µM
MCF7 breast
  GI50: 3.33 µM
  TGI: > 100 µM
CCRF-CEM leukemia
  GI50: 4.07 µM
  TGI: > 100 µM
MDA-MB-435
  GI50: 5.87 µM
  TGI: > 100 µM
MOLT-4 leukemia
  GI50: 3.13 µM
  TGI: > 100 µM
HCT-15 colon
  GI50: 2.61 µM
  TGI: > 100 µM
OVCAR-4 ovarian
  GI50: 6.89 µM
  TGI: > 100 µM
786-0 renal
  GI50: 1.97 µM
  TGI: > 100 µM
M14 melanoma
  GI50: 2.99 µM
  TGI: > 100 µM
MDA-MB-231 breast
  GI50: 2.21 µM
  TGI: > 100 µM
UACC-62 melanoma
  GI50: 3.66 µM
  TGI: > 100 µM
SK-MEL-5 melanoma
  GI50: 2.87 µM
  TGI: > 100 µM
COLO 205 colon
  GI50: 0.661 µM
  TGI: 3.88 µM
NCI/ADR-RES ovarian
  GI50: 3.75 µM
  TGI: > 100 µM
SF-295 CNS
  GI50: 2.66 µM
  TGI: 6.87 µM
HL-60(TB) leukemia
  GI50: 1.81 µM
  TGI: > 100 µM
IGROV1 ovarian
  GI50: 5.46 µM
  TGI: > 100 µM
A549 NSCLC
  GI50: 3.4 µM
  TGI: > 100 µM
T-47D breast
  GI50: 6.47 µM
  TGI: > 100 µM
MALME-3M melanoma
  GI50: 4.95 µM
  TGI: > 100 µM
UO-31 renal
  GI50: 1.41 µM
  TGI: > 100 µM
CAKI-1 renal
  GI50: 2.05 µM
  TGI: > 100 µM
HS 578T breast
  GI50: 4.17 µM
  TGI: > 100 µM
SF-268 CNS
  GI50: 6.66 µM
  TGI: > 100 µM
OVCAR-5 ovarian
  GI50: > 100 µM
  TGI: > 100 µM
SNB-75 CNS
  GI50: 2.31 µM
  TGI: > 100 µM

## O=C(O)CCN(CCC(=O)O)c1ccc(/C=C2\SC(=S)NC2=O)cc1
TK-10 renal
  TGI: > 100 µM
KM12 colon
  TGI: > 100 µM
NCI-H460 lung
  TGI: > 100 µM
OVCAR-8 ovarian
  TGI: > 100 µM
SK-OV-3 ovarian
  TGI: > 100 µM
PC-3 prostate
  TGI: > 100 µM
OVCAR-3 ovarian
  TGI: > 100 µM
NCI-H226 lung
  TGI: > 100 µM
SR leukemia
  TGI: > 100 µM
U251 CNS
  TGI: > 100 µM
HCT-116 colon
  TGI: > 100 µM
LOX IMVI melanoma
  TGI: > 100 µM
K-562 leukemia
  TGI: > 100 µM
NCI-H522 lung
  TGI: > 100 µM
DU-145 prostate
  TGI: > 100 µM
SK-MEL-28 melanoma
  TGI: > 100 µM
SK-MEL-2 melanoma
  TGI: > 100 µM
BT-549 breast
  TGI: > 100 µM
RXF 393 renal
  TGI: > 100 µM
ACHN renal
  TGI: > 100 µM
HOP-62 NSCLC
  TGI: > 100 µM
EKVX NSCLC
  TGI: > 100 µM
SN12C renal
  TGI: > 100 µM
SF-539 CNS
  TGI: > 100 µM
HOP-92 NSCLC
  TGI: > 100 µM
RPMI-8226 leukemia
  TGI: > 100 µM
SW-620 colon
  TGI: > 100 µM
HT29 colon
  TGI: > 100 µM
NCI-H23 lung
  TGI: > 100 µM
HCC-2998 colon
  TGI: > 100 µM
A498 renal
  TGI: > 100 µM
MCF7 breast
  TGI: > 100 µM
SNB-19 CNS
  TGI: > 100 µM
CCRF-CEM leukemia
  TGI: > 100 µM
MDA-MB-435
  TGI: > 100 µM
MOLT-4 leukemia
  TGI: > 100 µM
HCT-15 colon
  TGI: > 100 µM
OVCAR-4 ovarian
  TGI: > 100 µM
786-0 renal
  TGI: > 100 µM
M14 melanoma
  TGI: > 100 µM
MDA-MB-231 breast
  TGI: > 100 µM
UACC-62 melanoma
  TGI: > 100 µM
SK-MEL-5 melanoma
  TGI: > 100 µM
COLO 205 colon
  TGI: > 100 µM
UACC-257 melanoma
  TGI: > 100 µM
NCI/ADR-RES ovarian
  TGI: > 100 µM
SF-295 CNS
  TGI: > 100 µM
HL-60(TB) leukemia
  TGI: > 100 µM
IGROV1 ovarian
  TGI: > 100 µM
A549 NSCLC
  TGI: > 100 µM
T-47D breast
  TGI: > 100 µM
MALME-3M melanoma
  TGI: > 100 µM
UO-31 renal
  TGI: > 100 µM
CAKI-1 renal
  TGI: > 100 µM
HS 578T breast
  TGI: > 100 µM
SF-268 CNS
  TGI: > 100 µM
OVCAR-5 ovarian
  TGI: > 100 µM
SNB-75 CNS
  TGI: > 100 µM
